Our source for the Ki values is BindingDB's records for doi:10.1007/bf02246453 (University of Turku, 1996).

SMILES strings stand for the structures. Counter-ions that a name gives are not always drawn.

One experiment deals with 5-hydroxytryptamine receptor 2A (Rattus norvegicus, UniProt P14842).
Chain of 5-hydroxytryptamine receptor 2A (P14842 whole entry): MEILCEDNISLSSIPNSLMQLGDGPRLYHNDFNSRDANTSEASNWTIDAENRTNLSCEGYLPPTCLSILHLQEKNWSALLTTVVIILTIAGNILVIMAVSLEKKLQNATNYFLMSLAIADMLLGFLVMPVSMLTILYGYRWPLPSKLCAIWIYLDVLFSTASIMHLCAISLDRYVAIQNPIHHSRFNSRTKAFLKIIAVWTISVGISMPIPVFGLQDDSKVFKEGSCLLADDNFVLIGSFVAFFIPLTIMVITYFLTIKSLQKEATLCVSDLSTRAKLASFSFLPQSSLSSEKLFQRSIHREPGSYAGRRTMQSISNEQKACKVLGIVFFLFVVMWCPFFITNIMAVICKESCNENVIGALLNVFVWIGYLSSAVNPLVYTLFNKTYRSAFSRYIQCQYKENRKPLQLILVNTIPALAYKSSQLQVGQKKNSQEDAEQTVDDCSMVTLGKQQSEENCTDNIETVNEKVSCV
By Ki is commonly meant the equilibrium dissociation constant of an inhibitor or competing ligand from its target. A higher Ki goes with lower affinity. For `CN(C)CCC=C1c2ccccc2CCc2ccccc21`, the Ki worked out at 4.3 nM.

The next experiment concerns the target T1, 5-hydroxytryptamine receptor 2C (Rattus norvegicus, UniProt P08909).
T1 sequence (P08909 whole entry): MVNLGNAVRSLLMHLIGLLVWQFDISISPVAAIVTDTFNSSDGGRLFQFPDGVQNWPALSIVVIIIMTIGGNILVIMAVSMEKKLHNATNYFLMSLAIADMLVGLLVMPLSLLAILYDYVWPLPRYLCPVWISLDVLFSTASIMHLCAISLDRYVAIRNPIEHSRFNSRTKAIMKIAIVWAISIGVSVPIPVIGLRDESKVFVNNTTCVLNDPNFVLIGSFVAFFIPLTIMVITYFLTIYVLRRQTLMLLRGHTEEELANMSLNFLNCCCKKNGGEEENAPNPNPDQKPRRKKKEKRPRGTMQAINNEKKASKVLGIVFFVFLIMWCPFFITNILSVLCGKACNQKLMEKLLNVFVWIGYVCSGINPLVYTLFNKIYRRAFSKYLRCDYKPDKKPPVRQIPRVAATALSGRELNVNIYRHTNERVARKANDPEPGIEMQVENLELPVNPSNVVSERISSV
For `CN(C)CCCC1(c2ccc(F)cc2)OCc2cc(C#N)ccc21` (stereo unspecified) [CITALOPRAM HYDROBROMIDE], the Ki is 269 nM.

Take `CNCCCN1c2ccccc2CCc2ccccc21` [Desmethylimipramine]: the Ki was found to be 244 nM.

`NCC[C@H](Oc1ccc(C(F)(F)F)cc1)c1ccccc1` [NORFLUOXETINE]: the Ki came out at 157 nM. Consider `CN(C)CCC=C1c2ccccc2CCc2ccccc21`, for which the inhibition constant Ki came to 4.3 nM. `CN(C)CCCn1c2c(c3ccccc31)CCCCCC2` [CAS_5560-72-5] gave a Ki of 206 nM. On the same count and under the same terms, the result for `C#CCN(C)CCCOc1ccc(Cl)cc1Cl` [US8633208, Clorgyline] reads 1000 nM; that for `O=c1n(CCCN2CCN(c3cccc(Cl)c3)CC2)nc2ccccn12` [2-{3-[4-(3-chlorophenyl)piperazin-1-yl]propyl}[1,2,4]triazolo[4,3-a]pyridin-3(2H)-one], 193 nM. Same read-out and setting: the result for `CNCCC=C1c2ccccc2CCc2ccccc21` [NORTRIPTYLINE] reads 8.5 nM; that for `CN(C)C/C=C(/c1ccc(Br)cc1)c1cccnc1` [cis-[3-(4-Bromo-phenyl)-3-pyridin-3-yl-allyl]-dimethyl-amine;HCl], 1000 nM. On the same count and under the same terms, the same measure for `CN(C)CCCN1c2ccccc2CCc2ccccc21`: 94 nM.
